From paper PMC8846325, “A Photoactivable Natural Product with Broad Antiviral Activity against Enveloped Viruses, Including Highly Pathogenic Coronaviruses” (Antimicrobial Agents and Chemotherapy, 2022)

System: HCoV-229E
Test: HCoV-229E-Luc infection inhibition luciferase assay
Format: cell-based

SMILES	HCoV-229E infection with entry inhibitor
CCOC(=O)[C@H]1O[C@@H]1C(=O)N[C@@H](CC(C)C)C(=O)NCCC(C)C [E64D]	specifically inhibited HCoV-229E infection
CN(C)C(=O)COC(=O)Cc1ccc(OC(=O)c2ccc(NC(=N)N)cc2)cc1 [Camostat]	inhibited infection
